We go through two compounds from patent US10274488B2, “Glycan arrays on PTFE-like aluminum coated glass slides and related methods” (Academia Sinica, priority 2008, dated 2019).

SMILES strings stand for the structures.

One experiment relates to cellulase from T. reesei. In words: Enzymatic hydrolysis in solution with cellulase from T. reesei, MS-TOF readout. The experiment is classed as biochemical, Trichoderma reesei. The settings on record: reaction in solution. The procedure:
Enzymatic hydrolysis of the immobilized poly-fluorinated cellobiose 8 (see FIG. 14) was first conducted in situ on the phosphonic acid slide surface. Three commercially available cellulases, Aspergillus niger (A. niger), Trichoderma reesei (T. reesei), and Trichoderma viride (T. viride) were prepared separately at 5 U/mL in a sodium acetate (25 mM) buffer solution (pH 5) and loaded onto the functionalized slide which has been divided into 16 wells using Fast Frame reaction chambers. For comparison, an aliquot of enzyme solution (100 μL) was added to the solution of fluorinated cellobiose (100 μL of 0.5 mM) in eppendorfs to carry out the enzymatic hydrolysis reactions in solution. After the reaction, it was transferred to the empty wells of the same slide. Each well was rinsed separately three times with de-ionized water and the slide was dried again under high vacuum before subjecting to MS-TOF analysis.
Under MS-TOF analysis, the clean background baseline allowed calculation of the percentage of hydrolyzed components for each sample. As shown in the MS-TOF results in FIG. 20, percentages of hydrolyzed products are calculated from the peak intensities of each spectrum. According to implementations of experimental data shown in FIG. 20, MS-TOF data of enzymatic hydrolysis of poly-fluorinated cellobiose in solution in FIG. 20A and immobilized on PTFE-like ACG slide in FIG. 20B. The control are the same experimental conditions run without enzymes in (a); (b), (c), and (d) are experimental conditions with the cellulase proteins from A. niger (b), T. reesei (c), and T. viride (d).
Cellulase was prepared (5 U/mL in 25 mM pH 5.05 NaOAc buffer solution). Substrate was also dissolved in NaOAc buffer solution (25 mM, pH 5.05) to give 0.5 mM substrate solution. Add 100 uL cellulase solution to 100 uL substrate solution in eppendorf to have a 2.5 U/mL cellulase solution with 0.25 mM substrate. This solution was incubated in 37° C. for 18 hours. Add 100 μL incubated solution onto the slide loaded in FAST® Frame. Put the slide in dry box to remove the water, and then use high vacuum to remove trace water. 100 μL water was used to rinse each well of the FAST® Frame multi-slide plate to solve and remove the salt of the buffer solution. Remove any residual water on the plate by high vacuum and then analyzed the slide by MALDI-TOF Ultra-Flex II.

The next experiment has as its system endoglucanase 44A. Put plainly: Enzymatic hydrolysis on the PTFE-like ACG surface with endoglucanase 44A, MS-TOF assay. The experiment is classed as biochemical, Clostridium thermocellum. The settings on record: substrate immobilized on the PTFE-like ACG surface. As for the experimental part:
For each carbohydrate, a specific enzyme was added: (a) is the control run without enzymes, (b) is exoglucanase L3, and (c) is endoglucanase 44A. […]
For comparison and as illustrated according to implementations shown in FIG. 23, substrate 8, 9, and 10 were immobilized on the PTFE-like ACG surface and carried out the cellulase hydrolysis on the surface directly, after the same washing procedures, these slides were subjected to MS-TOF assay. […] The endoglucanase 44A can't accept compound 8 or 9 as a substrate. […] From the above results, the cellotetraose substrate 10 was the best carbohydrate to create array on the PTFE-like ACG surface for the experiments conducted. By using this array, the activity and specificity of unknown cellulase may be examined.
Cellulase was prepared (5 U/mL in 25 mM pH 5.05 NaOAc buffer solution). Substrate was also dissolved in NaOAc buffer solution (25 mM, pH 5.05) to give 0.5 mM substrate solution. Add 50 μL cellulase solution to 50 μL substrate solution onto the glass slide which was loaded in FAST® Frame multi-slide plate to have a 2.5 U/mL cellulase solution with 0.25 mM substrate. The well of the plate was sealed and the whole assembly was incubated in 37° C. for 18 hours. Put the slide in dry box to remove the water, and then use high vacuum to remove trace water. 100 uL water was used to rinse each well of the FAST® Frame multi-slide plate to solve and remove the salt of the buffer solution. Remove any residual water on the plate by high vacuum and then analyzed the slide by MALDI-TOF Ultra-Flex II.
The genomic DNA of Sulfolobus solfataricus (ATCC 35092) and Clostridium thermocellum (ATCC 27405) were obtained from the ATCC biological resource center. The Sso7d (NCBI accession number: AAK42090) gene fragment was amplified directly from the Sulfolobus solfataricus genome by polymerase chain reaction (PCR) with forward 5′ […] 3′ (SEQ ID NO: 1) and reverse 5′ […] 3′ (SEQ ID NO: 2) primers. […]

As to `O=C(NCCCCCO[C@@H]1O[C@H](CO)[C@@H](O[C@@H]2O[C@H](CO)[C@@H](O)[C@H](O)[C@H]2O)[C@H](O)[C@H]1O)OCCCC(F)(F)C(F)(F)C(F)(F)C(F)(F)C(F)(F)C(F)(F)C(F)(F)C(F)(F)F` [Compound 8, [(4,4,5,5,6,6,7,7,8,8,9,9,10,10,11,11,12,12,12-nonadecafluorododecoxycarbonyl-amino)pentyl] ß-D-cellobioside], in the experiment on cellulase from T. reesei (T. reesei cellulase, pH 5), the “Biose (un-hydrolyzed cellobiose), percentage of hydrolyzed pattern” value is reported as 7%; the “F-tail, percentage of hydrolyzed pattern” value is 0%; the “Glucose, percentage of hydrolyzed pattern” value came out at 93%; the “Triose, percentage of hydrolyzed pattern” value is given as 0/0%. Besides, the “Cleavage of the substrate by endoglucanase 44A (in words)” value in the experiment on endoglucanase 44A is listed as “can't accept”.

Consider `O=C(NCCCCCO[C@@H]1O[C@H](CO)[C@@H](O[C@@H]2O[C@H](CO)[C@@H](O[C@@H]3O[C@H](CO)[C@@H](O)[C@H](O)[C@H]3O)[C@H](O)[C@H]2O)[C@H](O)[C@H]1O)OCCCC(F)(F)C(F)(F)C(F)(F)C(F)(F)C(F)(F)C(F)(F)C(F)(F)C(F)(F)C(F)(F)F` [Compound 9, [(4,4,5,5,6,6,7,7,8,8,9,9,10,10,11,11,12,12,12-nonadecafluorododecoxycarbonyl-amino)pentyl] ß-D-glucopyranosyl-(1→4)-ß-D-glucopyranosyl-(1→4)- -ß-D-glucopyranoside], for which, in the experiment with cellulase from T. reesei, the “Hydrolysis of the substrate by the enzyme from T. reesei compared with the enzymes from the other two species (in words)” value is given as “most efficiently”. Also, the “Cleavage of the substrate by endoglucanase 44A (in words)” value in the experiment with endoglucanase 44A is “can't accept”.
